Experimental data: patent EP3478687B1 (Daewoong Pharmaceutical Co., Ltd., priority 2016, dated 2018)

Legend:
[1] = target: T1, Recombinant purified human BTK (Homo sapiens, UniProt Q06187); assay: BTK kinase inhibitory activity, ADP-Glo kinase assay (Promega V9071); assay type: biochemical; conditions: for IC50: ATP 10 uM, 8 ng BTK per reaction, 1 hour 30 °C, chemiluminescence
T1 construct: purchased Promega V9071
Procedure, shortened: (§1)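 Recombinant human kinases in Tris pH 7.5 buffer with MgCl2, BSA and DTT (MnCl2 added for BTK), 4 ng JAK3 or 8 ng BTK per reaction. Poly(Glu4,Tyr1) 0.2 µg/µL with 5 µM (JAK3) or 10 µM (BTK) ATP, 1% DMSO, 1 h at 30 °C. ADP-Glo luminescence used to derive IC50.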

[2] = target: T2, Recombinant purified human JAK3 (Homo sapiens, UniProt P52333); assay: JAK3 kinase inhibitory activity, ADP-Glo kinase assay (Promega V9441); assay type: biochemical; conditions: for IC50: ATP 5 uM, 4 ng JAK3 per reaction, 1 hour 30 °C, chemiluminescence; for inhibition at 0.1 µM: @100nM compound, printed in the JAK3 IC50 column
T2 construct: purchased Promega V9441
T2 sequence (P52333 1-1124): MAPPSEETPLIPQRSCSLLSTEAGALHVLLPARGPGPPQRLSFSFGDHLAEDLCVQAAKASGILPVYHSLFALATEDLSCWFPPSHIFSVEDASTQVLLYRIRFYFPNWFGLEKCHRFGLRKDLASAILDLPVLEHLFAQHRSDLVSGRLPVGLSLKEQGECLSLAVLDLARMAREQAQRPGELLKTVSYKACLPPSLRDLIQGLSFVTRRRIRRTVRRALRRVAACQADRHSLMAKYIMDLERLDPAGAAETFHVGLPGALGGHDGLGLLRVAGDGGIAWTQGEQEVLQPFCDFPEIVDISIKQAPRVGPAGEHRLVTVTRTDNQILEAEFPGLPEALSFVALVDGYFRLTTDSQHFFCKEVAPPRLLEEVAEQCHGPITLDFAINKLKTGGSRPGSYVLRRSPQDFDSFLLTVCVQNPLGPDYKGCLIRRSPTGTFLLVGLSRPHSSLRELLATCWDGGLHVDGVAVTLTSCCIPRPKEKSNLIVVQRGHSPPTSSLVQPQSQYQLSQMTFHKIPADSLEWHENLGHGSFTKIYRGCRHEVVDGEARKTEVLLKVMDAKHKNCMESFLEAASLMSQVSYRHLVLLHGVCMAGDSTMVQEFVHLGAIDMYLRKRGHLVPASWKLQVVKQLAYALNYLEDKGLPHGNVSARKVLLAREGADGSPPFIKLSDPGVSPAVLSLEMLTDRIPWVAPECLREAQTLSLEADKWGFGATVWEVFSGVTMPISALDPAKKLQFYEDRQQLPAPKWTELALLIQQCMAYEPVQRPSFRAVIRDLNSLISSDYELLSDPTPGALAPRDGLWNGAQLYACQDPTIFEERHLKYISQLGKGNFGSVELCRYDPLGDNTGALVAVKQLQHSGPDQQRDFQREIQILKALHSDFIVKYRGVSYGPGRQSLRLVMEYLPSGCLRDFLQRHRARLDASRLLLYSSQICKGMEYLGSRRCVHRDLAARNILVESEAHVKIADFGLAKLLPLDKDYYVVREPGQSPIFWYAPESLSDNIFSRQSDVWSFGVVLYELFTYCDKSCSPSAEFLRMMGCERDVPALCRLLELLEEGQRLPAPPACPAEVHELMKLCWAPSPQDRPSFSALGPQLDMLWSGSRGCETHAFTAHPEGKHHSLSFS
Procedure, shortened: as §1

T1 sequence (Q06187 whole entry): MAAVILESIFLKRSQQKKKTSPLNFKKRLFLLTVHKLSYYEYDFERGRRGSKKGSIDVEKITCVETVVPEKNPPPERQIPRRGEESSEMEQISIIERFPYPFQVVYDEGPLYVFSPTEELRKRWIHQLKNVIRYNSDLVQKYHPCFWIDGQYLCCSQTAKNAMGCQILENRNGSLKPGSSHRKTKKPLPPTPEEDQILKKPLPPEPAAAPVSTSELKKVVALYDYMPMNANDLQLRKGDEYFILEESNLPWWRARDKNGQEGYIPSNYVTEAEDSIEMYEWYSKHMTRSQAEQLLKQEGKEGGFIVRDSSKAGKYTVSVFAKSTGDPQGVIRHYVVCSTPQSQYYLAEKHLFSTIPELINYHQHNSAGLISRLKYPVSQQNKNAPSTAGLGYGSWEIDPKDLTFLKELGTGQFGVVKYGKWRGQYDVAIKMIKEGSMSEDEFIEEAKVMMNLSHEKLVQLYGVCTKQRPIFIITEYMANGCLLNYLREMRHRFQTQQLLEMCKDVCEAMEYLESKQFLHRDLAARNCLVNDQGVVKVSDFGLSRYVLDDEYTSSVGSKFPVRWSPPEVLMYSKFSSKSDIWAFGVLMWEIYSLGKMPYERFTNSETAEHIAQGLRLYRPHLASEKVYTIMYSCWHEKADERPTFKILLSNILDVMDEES

IC50 [1]	IC50 [2]	inhibition at 0.1 µM ([1]; @100nM compound)	inhibition at 0.1 µM [2]	inhibition at 1 µM ([1]; @1uM compound)	Structure (SMILES)
2.1 nM	3.4 nM	–	–	–	C=CC(=O)N1CCC[C@@H](Nc2nc(Nc3cnn(C(F)F)c3)nc3[nH]ncc23)C1 [Example 34, (R)-1-(3-(6-(1-(difluoromethyl)-1H-pyrazol-4-ylamino)-1H-pyrazolo [3,4-d]pyrimidin-4-ylamino)piperidin-1-yl)prop-2-en-1-one]
–	–	23.7%	32.8%	–	C=CC(=O)N1CCC[C@@H](Nc2nc(Nc3cccc(-n4nc(C)cc4C)c3)nc3[nH]ccc23)C1 [Example 10, (R)-1-(3-(2-(3-(3,5-dimethyl-1H-pyrazol-1-yl)phenylamino)-7H-pyrrolo [2,3-d]pyrimidin-4-ylamino)piperidin-1-yl)prop-2-en-1-one]
10.1 nM	0.4 nM	–	–	–	C=CC(=O)N1CCC[C@@H](Nc2nc(Nc3cnn(C(F)F)c3)nc3[nH]ccc23)C1 [Example 16, (R)-1-(3-(2-(1-(difluoromethyl)-1H-pyrazol-4-ylamino)-7H-pyrrolo[2,3-d]pyrimidin-4-ylamino)piperidin-1-yl)prop-2-en-1-one]
1.8 nM	0.2 nM	–	–	–	C=CC(=O)N1CCC[C@@H](Nc2nc(Nc3cnn(CCN4CCOCC4)c3)nc3[nH]cc(Cl)c23)C1 [Example 40, (R)-1-(3-(5-chloro-2-(1-(2-morpholinoethyl)-1H-pyrazol-4-ylamino)-7H-pyrrolo [2,3-d]pyrimidin-4-ylamino)piperidin-1-yl)prop-2-en-1-one]
6 nM	–	–	52.6%	–	C=CC(=O)N1CCC[C@@H](Nc2nc(Nc3ccc(N4CCN(C)CC4)cc3)nc3[nH]ncc23)C1 [Example 30, (R)-1-(3-(6-(4-(4-methylpiperazin-1-yl)phenylamino)-1H-pyrazolo [3,4-d]pyrimidin-4-ylamino)piperidin-1-yl)prop-2-en-1-one]
1.4 nM	14.9 nM	–	–	–	CCn1cc(Nc2nc(N[C@@H]3CCCN(C(=O)/C(C#N)=C/C4CC4)C3)c3cn[nH]c3n2)cn1 [Example 175, (R,E)-3-cyclopropyl-2-(3-((6-((1-ethyl-1H-pyrazol-4-yl)amino)-1H-pyrazolo[3,4-d]pyrimidin-4-yl)amino)piperidine-1-carbonyl)acrylonitrile]
2.3 nM	2.8 nM	–	–	–	C=CC(=O)N1CCC[C@@H](Sc2nc(Nc3cnn(CC(C)C)c3)nc3[nH]nc(Cl)c23)C1 [Example 113, (R)-1-(3-((3-chloro-6-((1-isobutyl-1H-pyrazol-4-yl)amino)-1H-pyrazolo[3,4-d]pyrimidin-4-yl)thio)piperidin-1-yl)prop-2-en-1-one]
708 nM	> 80 nM	–	–	–	C=CC(=O)N1CCC[C@@H](Nc2nc(Nc3ccc(N4CCOCC4)cc3F)nc3[nH]cc(Cl)c23)C1 [Example 97]
1.3 nM	3.2 nM	–	–	–	C=CC(=O)N1CCC[C@@H](N(C)c2nc(Nc3cnn(CC)c3)nc3[nH]nc(Cl)c23)C1 [Example 118, (R)-1-(3-((3-chloro-6-((1-ethyl-1H-pyrazol-4-yl)amino)-1H-pyrazolo[3,4-d]pyrimidin-4-yl)(methyl)amino)piperidin-1-yl)prop-2-en-1-one]
1.1 nM	0.1 nM	–	–	–	C=CC(=O)N1CCC[C@@H](Nc2nc(Nc3cc(C)ns3)nc3[nH]cc(Cl)c23)C1 [Example 136, (R)-1-(3-((5-chloro-2-((3-methylisothiazol-5-yl)amino)-7H-pyrrolo[2,3-d]pyrimidin-4-yl)amino)piperidin-1-yl)prop-2-en-1-one]
6 nM	8.1 nM	–	–	–	C=CC(=O)N1CC[C@@H](C)[C@@H](Nc2nc(Nc3cnn(CCN(CC)CC)c3)nc3[nH]nc(Cl)c23)C1 [Example 122, 1-((3R,4R)-3-((3-chloro-6-((1-(2-(diethylamino)ethyl)-1H-pyrazol-4-yl)amino)-1H-pyrazolo[3,4-d]pyrimidin-4-yl)amino)-4-methylpiperidin-1-yl)prop-2-en-1-one]
19.2 nM	1.1 nM	–	–	–	C=CC(=O)N1CCC[C@@H](Nc2nc(Nc3cnn(C)c3)nc3[nH]ccc23)C1 [Example 14, (R)-1-(3-(2-(1-methyl-1H-pyrazol-4-ylamino)-7H-pyrrolo[2,3-d]pyrimidin-4-ylamino)piperidin-1-yl)prop-2-en-1-one]
21 nM	1.3 nM	–	–	–	C=CC(=O)N1CCC[C@@H](N(C)c2nc(Nc3cnn(CC(F)F)c3)nc3[nH]ccc23)C1 [Example 103, (R)-1-(3-((2-((1-(2,2-difluoroethyl)-1H-pyrazol-4-yl)amino)-7H-pyrrolo[2,3-d]pyrimidin-4-yl)(methyl)amino)piperidin-1-yl)prop-2-en-1-one]
1.9 nM	3.6 nM	–	–	–	C=CC(=O)N1CCC[C@@H](Sc2nc(Nc3cnn(CC)c3)nc3[nH]ncc23)C1 [Example 105, (R)-1-(3-((6-((1-ethyl-1H-pyrazol-4-yl)amino)-1H-pyrazolo [3,4-d]pyrimidin-4-yl)thio)piperidin-1-yl)prop-2-en-1-one]
9.6 nM	4.6 nM	–	–	–	C=CC(=O)N1CCC[C@@H](Nc2nc(Nc3ccc(-n4nc(C)cc4C)cc3)nc3[nH]ccc23)C1 [Example 6, (R)-1-(3-(2-(4-(3,5-dimethyl-1H-pyrazol-1-yl)phenylamino)-7H-pyrrolo [2,3-d]pyrimidin-4-ylamino)piperidin-1-yl)prop-2-en-1-one]
0.9 nM	0.7 nM	–	–	–	C=CC(=O)N1CCC[C@@H](Nc2nc(Nc3cnn(C4CC4)c3)nc3[nH]nc(Cl)c23)C1 [Example 49, (R)-1-(3-(3-chloro-6-(1-cyclopropyl-lH-pyrazol-4-ylamino)-1H-pyrazolo [3,4-d]pyrimidin-4-ylamino)piperidin-1-yl)prop-2-en-1-one]
2.2 nM	241 nM	–	–	–	CCn1cc(Nc2nc(N[C@H]3CN(C(=O)/C(C#N)=C/C4CC4)CC[C@H]3C)c3c(Cl)n[nH]c3n2)cn1 [Example 169, (E)-2-((3R,4R)-3-((3-chloro-6-((1-ethyl-1H-pyrazol-4-yl)amino)-1H-pyrazolo[3,4-d]pyrimidin-4-yl)amino)-4-methylpiperidine-1-carbonyl)-3-cyclopropylacrylonitrile]
1.3 nM	1.1 nM	–	–	–	C=CC(=O)N1CCC[C@@H](Sc2nc(Nc3cnn(CC)c3)nc3[nH]nc(Cl)c23)C1 [Example 111, (R)-1-(3-((3-chloro-6-((1-ethyl-1H-pyrazol-4-yl)amino)-1H-pyrazolo[3,4-d]pyrimidin-4-yl)thio)piperidin-1-yl)prop-2-en-1-one]
6.6 nM	3.8 nM	–	–	–	C=CC(=O)N1CC[C@@H](C)[C@@H](Nc2nc(Nc3cnn(CC)c3)nc3[nH]cc(F)c23)C1 [Example 84, 1-((3R,4R)-3-((2-((1-ethyl-1H-pyrazol-4-yl)amino)-5-fluoro-7H-pyrrolo[2,3-d]pyrimidin-4-yl)amino)-4-methylpiperidin-1-yl)prop-2-en-1-one]
3.2 nM	5.1 nM	–	–	–	C=CC(=O)N1CCC[C@@H](Nc2nc(Nc3ccc(N4CCN(C)CC4)cc3)nc3[nH]nc(Cl)c23)C1 [Example 42]
16.5 nM	1.1 nM	–	–	–	C=CC(=O)N1CCC[C@@H](Nc2nc(Nc3ccc(N4CCN(C)CC4)cc3)nc3[nH]cc(Cl)c23)C1 [Example 36, (R)-1-(3-(5-chloro-2-(4-(4-methylpiperazin-1-yl)phenylamino)-7H-pyrrolo [2,3-d]pyrimidin-4-ylamino)piperidin-1-yl)prop-2-en-1-one]
–	66.2 nM	–	–	47.1%	C=CC(=O)NC1CCCC(Nc2nc(Nc3ccc(N4CCN(C)CC4)cc3)nc3[nH]ccc23)C1 (stereo not shown) [Example 29, N-(3-(2-(4-(4-methylpiperazin-1-yl)phenylamino)-7H-pyrrolo[2,3-d]pyrimidin-4-ylamino)cyclohexyl)acrylamide]
1 nM	0.3 nM	–	–	–	C=CC(=O)N1CC[C@@H](F)[C@@H](Nc2nc(Nc3cnn(CC)c3)nc3[nH]ccc23)C1 [Example 76, 1-((3S,4R)-3-((2-((1-ethyl-1H-pyrazol-4-yl)amino)-7H-pyrrolo[2,3-d]pyrimidin-4-yl)amino)-4-fluoropiperidin-1-yl)prop-2-en-1-one]
